Among the data in PMC8536830 (Current Biology, 2021) are EC50 values, retold here.

Structures are written as SMILES.

A word on the EC50: it is the midpoint of the concentration-response curve.

The target in this assay is T1, LGC-50 S335D, T348D, S353A (Caenorhabditis elegans, UniProt P41849, S335D/S353A/).
T1 construct: Plasmid: KSM: lgc-50 (cDNA, S335D, T348A, S353A); expressed in transfected cells; host or cells: Xenopus laevis oocytes injected with cRNA (probably plasmid pIH134)
The assay is described as follows: Two-electrode voltage clamp, 5-HT evoked dose response, LGC-50 phosphomimic mutant. Format: cell-based, C. elegans. From the text:
In addition to this region, we also investigated three upstream predicted phosphorylation sites. Phosphorylation of the M3/4 loop has previously been implicated in the trafficking and cell surface recycling of GABAA receptors.[23]^,[24] The first site in the M3/4 loop of LGC-50, S335, is predicted to be a cdc2 site, and T348 and S353 are predicted protein kinase C (PKC) or PKA sites (Table S2).[25]^,[26] We introduced both phosphorylation-dead alanine mutations and phosphomimic aspartate mutations into these sites to assess their effect on receptor trafficking. […]
Two-electrode voltage clamp recordings were carried out using the Robocyte2 recording system or a manual TEVC set up, using an OC-725D amplifier (Multi Channel Systems, Reutlingen, Germany) and paired with a custom-made recording chamber and agar bridges from reference and bath electrodes. […] Data was recorded using WinWCP or RoboCyte2 control software, manual data was filtered at 10 Hz.
Dose response curves were calculated from the peak current during a 10 s agonist stimulation in ND96 solution, with a 60 s ND96 wash in between doses. […] Normalized dose response data was fitted to a nonlinear curve using a four parameters variable slope and the EC50 and Hill slope was calculated. […] Kinetic measurements were calculated from a 60 s agonist perfusion. […]

T1 sequence (P41849 20-491 S335D/T348A/S353A): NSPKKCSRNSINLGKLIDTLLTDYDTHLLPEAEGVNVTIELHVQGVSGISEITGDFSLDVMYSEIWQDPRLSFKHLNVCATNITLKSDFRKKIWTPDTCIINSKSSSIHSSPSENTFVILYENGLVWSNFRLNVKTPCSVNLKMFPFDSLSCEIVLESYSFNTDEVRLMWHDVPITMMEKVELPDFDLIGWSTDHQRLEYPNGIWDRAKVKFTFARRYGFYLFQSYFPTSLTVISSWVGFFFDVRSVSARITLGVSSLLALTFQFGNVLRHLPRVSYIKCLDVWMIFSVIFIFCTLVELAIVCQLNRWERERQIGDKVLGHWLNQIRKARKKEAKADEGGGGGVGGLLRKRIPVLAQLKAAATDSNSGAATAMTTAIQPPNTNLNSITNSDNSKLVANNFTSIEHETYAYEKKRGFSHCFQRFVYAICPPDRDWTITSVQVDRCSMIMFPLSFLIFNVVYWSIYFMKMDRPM

As to `NCCc1c[nH]c2ccc(O)cc12` [5-HT, serotonin], the EC50 amounted to 720 nM.
